Values of other authors in patent US5493006A, “Cyclic CRF analogs” (The Salk Institute for Biological Studies, priority 1993, dated 1996).
Entries after “also recorded” stand apart in the source; their conditions may differ. Ends that are not written are not given here.

Experiments:
[1] = injected peripherally; background statement
[2] = test system: secretion of ACTH and β-END-LI; details: in vitro and in vivo; background statement

Substance | lowering of blood pressure [1] | stimulation of ACTH and β-endorphin-like activities (β-END-Li) [2]
rCRF: rat CRF, a homologous, amidated hentetracontapeptide; same formula as human CRF (SEEPPISLDLTFHLLREVLEMARAEQLAQQAHSNRKLMEII-NH2; UniProt P01143 145-185, looked up) | substantially lower blood pressure | stimulate ACTH and β-endorphin-like activities (β-END-Li) in vitro and in vivo
oCRF: ovine corticotropin releasing factor, a 41-residue amidated peptide (SQEPPISLDLTFHLLREVLEMTKADQLAQQAHSNRKLLDIA-NH2; UniProt P01142 148-188, looked up) | lowers blood pressure; also recorded: substantially lower blood pressure | stimulates the secretion of ACTH and β-endorphin; also recorded: stimulate ACTH and β-endorphin-like activities (β-END-Li) in vitro and in vivo
